From patent US10189824B2, “Pyrimidine-diamine dual HSP90/TRAP1 inhibitors” (CalAsia Pharmaceuticals, Inc., priority 2014, dated 2019)

What was measured:
[1] = system: Hsp90 client proteins (Akt1, ERK1) in HEI193; test: Cellular biomarker assays (Akt1, ERK1 ELISA) in HEI193; assay type: cell-based, human; conditions: 48 hour treatment
Procedure: (§1) Cellular biomarker assays: Cells were cultured in culture medium (RPMI-glutamax, 10% FCS, 100 units/ml penicillin, and 100 μg/ml streptomycin). Cells were passaged after lifting using 0.25% trypsin/EDTA, and 3×10^5 cells were seeded in each well of six well plates (total volume 2.5 mL/well). After the cells were cultured for 24 hours, increasing concentrations of Hsp90 inhibitor were added to wells in triplicate from DMSO-containing stock solutions and mixed by gently by stirring. Final DMSO concentration in all wells was 0.25%. The treated cells were then cultured for 48 hours prior to lysate preparation. The culture media was removed from wells, and the wells were washed twice with DPBS containing 1 mM CaCl2 and 0.5 mM MgCl2. […] The protein concentration in the cell lysates was determined using the BCA protein assay kit used according to the manufacturer's recommendations. […] Protein concentrations were determined using a micro-titer plate reader (Model # Synergy HT; BioTek Inc., Winooski, Vt.).
(§2) Akt1 and ERK1 levels in the cell lysates were measured using kits from R&D Systems used according to the manufacturer's recommendations. […] Akt1 and ERK1 levels were determined using a micro-titer plate reader (Model # Synergy HT; BioTek Inc., Winooski, Vt.) (FIGS. 5 and 8).

GBM39 = test: Cellular efficacy in Mayo Clinic GBM PDX cell line GBM39; assay type: cell-based
Procedure: (§3) Short-term explant cultures from PDX models were seeded into 96-well Perfecta3D hanging drop plates to form a single spheroid in each well after 2 days. The spheroids were transferred to a round bottom 96 well plate by centrifugation and then incubated with graded concentrations of test compound (8 spheroids per compound concentration). Spheroid volumes were monitored every 6 hours over the course of 5 days using the IncuCyte system (Essen BioScience, MI, US) to provide a growth curve akin to a tumor regrowth assay.

[2] = system: Hsp90 client proteins (Akt1, ERK1) in MDA-MB-231 cell line; test: Cellular biomarker assays (Akt1, ERK1 ELISA) in MDA-MB-231; assay type: cell-based; conditions: 48 hours
Procedure: as §1, §2

TRAP1 = target: T1, TRAP1 (Homo sapiens, UniProt Q12931); test: Fluorescence polarization (FP) displacement assay, GA-FITC, TRAP1; assay type: binding; conditions: FP displacement of GA-FITC, 200 nM TRAP1; for Ki: NA: Not active, read-out: Biochemical efficacy TRAP1 Ki; for IC50: read-out: Biochemical efficacy TRAP1 IC50
T1 construct: Recombinant full-length human Hsp90 and 459 TRAP1 were cloned; 6His (TEV-cleavable) (N); made in house; host or cells: E. coli BL21 (DE3)
T1 sequence (Q12931 60-704): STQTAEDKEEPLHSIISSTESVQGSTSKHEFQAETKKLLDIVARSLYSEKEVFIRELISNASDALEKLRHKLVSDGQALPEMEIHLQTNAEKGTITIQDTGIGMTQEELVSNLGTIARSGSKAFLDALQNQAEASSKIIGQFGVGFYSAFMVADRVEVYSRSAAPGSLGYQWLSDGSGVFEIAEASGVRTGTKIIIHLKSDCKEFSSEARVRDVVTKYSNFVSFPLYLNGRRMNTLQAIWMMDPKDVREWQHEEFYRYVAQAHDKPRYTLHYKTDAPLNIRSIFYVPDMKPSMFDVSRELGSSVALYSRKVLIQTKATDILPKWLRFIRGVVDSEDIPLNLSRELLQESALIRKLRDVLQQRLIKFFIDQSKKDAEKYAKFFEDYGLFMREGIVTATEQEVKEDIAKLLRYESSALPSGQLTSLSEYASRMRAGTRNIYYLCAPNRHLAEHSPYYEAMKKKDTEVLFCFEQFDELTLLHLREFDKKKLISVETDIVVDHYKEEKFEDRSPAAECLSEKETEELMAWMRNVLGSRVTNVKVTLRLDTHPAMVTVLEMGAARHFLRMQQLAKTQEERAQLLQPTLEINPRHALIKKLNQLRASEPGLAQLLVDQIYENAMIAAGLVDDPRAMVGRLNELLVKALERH
Procedure: (§4) Prior to transforming into BL21 (DE3) all the cloned vectors were sequence confirmed. Expressed proteins were purified using NTA resin (Life Technologies) followed by size exclusion chromatography using FPLC. The molecular mass of the purified proteins was confirmed by MALDI-TOF and assessed for purity by SDS-PAGE.
(§5) The assay conditions were 20 mM HEPES, pH-7.5, 50 mM KCl, 5 mM MgCl2, 20 mM sodium molybdate, 2 mM DTT, 0.01% NP40, 100 ug/ml BSA, 50 nM Hsp90 or 200 nM TRAP1, 1% DMSO, and 8 nM (for Hsp90) or 20 nM (for TRAP1) GA-FITC in the presence of increasing concentrations of test compound.

[3] = system: Hsp90 client proteins (EGFR and Akt1) in Mayo Clinic GBM PDX cell lines; test: Cellular biomarker assays (EGFR, Akt1 ELISA) in Mayo Clinic GBM PDX cell lines; assay type: cell-based; conditions: 48 hours; three cell lines
[4] = system: Mayo Clinic patient derived GBM tumor cells; test: Mayo Clinic patient derived GBM tumor cell proliferation; assay type: cell-based; conditions: 132 hours
Procedure: as §3

GBM10 = test: Cellular efficacy in Mayo Clinic GBM PDX cell line GBM10; assay type: cell-based
Procedure: as §3

GBM43 = test: Cellular efficacy in Mayo Clinic GBM PDX cell line GBM43; assay type: cell-based
Procedure: as §3

human Hsp90 = test: Fluorescence polarization (FP) displacement assay, GA-FITC, Hsp90; assay type: binding; conditions: FP displacement of GA-FITC, 50 nM Hsp90; for IC50: read-out: Biochemical efficacy HSP90 IC50; for Ki: read-out: Biochemical efficacy HSP90 Ki
Procedure: as §4, §5

HEI193 cells = test: TMRE assay, HEI193 cell mitochondrial integrity; assay type: cell-based, human; conditions: observed as early as 2 hours after treatment
Procedure: Mitochondrial integrity was evaluated using Tetramethylrhodamine ethyl ester (TMRE) assay. A TMRE assay kit (Abcam) was used to evaluate Hsp90/TRAP1 inhibitor-induced changes in mitochondrial membrane potential. […] TMRE (200 nM) was then added to wells for 30 min and monitored for changes in fluorescence activity using a fluorescence plate reader (ex544/em 590) after washing the cells. Specific TMRE fluorescence was calculated by comparison to matched wells pretreated with the depolarizing proton ionophore carbonyl cyanide 4-(trifluoromethoxy)phenylhydrazone (FCCP) at 20 uM 10 min prior to addition of TMRE. For mitochondria assays, mitochondria was isolated using a kit from Thermoscientific and loaded with 0.1 mM TMRE. TMRE-loaded mitochondria (2 μg per well) were incubated with test compounds and monitored kinetically at 30° C. for changes in fluorescence using a flurorescence plate reader (ex 544/em 590) (FIGS. 6A, 9A and 12).

EC50 (GBM39) [µM] | Ki (TRAP1) [µM] | IC50 (TRAP1) [µM] | EC50 (GBM10) [µM] | EC50 (GBM43) [µM] | IC50 (human Hsp90) [µM] | Ki (human Hsp90) [µM] | SMILES | Effect on Akt1 and ERK1 levels, HEI193 [1] | Effect on Akt1 and ERK1 levels, MDA-MB-231 [2] | Effect on EGFR and Akt1 levels, GBM PDX cell lines [3] | Effect on patient derived GBM tumor cell proliferation [4] | Effect on TMRE fluorescence in HEI193 cells (HEI193 cells)
0.62 | 0.011 | 0.085 | 1.2 | 0.87 | 0.033 | 0.008 | Cc1cnc(CN(CC2(c3ccc(F)cc3)CCOCC2)c2cc(Cl)nc(N)n2)c(C)c1Cl [Compound B, 6-chloro-4-N-[(4-chloro-3,5-dimethylpyridin-2-yl)methyl]-4-N-{[4-(4-fluorophenyl)oxan-4-yl]methyl}pyrimidine-2,4-diamine] | reduction of Hsp90 client proteins | suppression of Hsp90 client proteins | suppression of Hsp90 client proteins | inhibit | –
– | – | > 4 | – | – | 0.087 | 0.022 | COc1ccnc(CN(CC2(c3ccc(F)cc3)CCOCC2)c2cc(Cl)nc(N)n2)c1C [Compound C, 6-chloro-4-N-{[4-(4-fluorophenyl)oxan-4-yl]methyl}-4-N-[(4-methoxy-3-methylpyridin-2-yl)methyl]pyrimidine-2,4-diamine] | – | – | – | – | –
– | 0.068 | 0.543 | – | – | 0.054 | 0.014 | COc1c(C)cnc(CN(CC2(c3cccc(C)n3)CCOCC2)c2cc(Cl)nc(N)n2)c1C [Compound D, 6-chloro-4-N-[(4-methoxy-3,5-dimethylpyridin-2-yl)methyl]-4-N-{[4-(6-methylpyridin-2-yl)oxan-4-yl]methyl}pyrimidine-2,4-diamine] | – | – | – | – | –
– | 0.138 | 1.1 | – | – | 0.096 | 0.024 | COc1c(C)cnc(CN(CC2(c3ccccn3)CCOCC2)c2cc(Cl)nc(N)n2)c1C [Compound E, 6-chloro-4-N-[(4-methoxy-3,5-dimethylpyridin-2-yl)methyl]-4-N-{[4-(pyridin-2-yl)oxan-4-yl]methyl}pyrimidine-2,4-diamine] | – | – | – | – | –
– | – | – | – | – | – | – | CC(C)c1cc(-c2n[nH]c(=O)n2-c2ccc3c(ccn3C)c2)c(O)cc1O [Ganetespib, reference compound] | – | – | – | – | significantly weaker response
